# System: male or female adult patients, exhibiting a major depressive disorder
# Assay: Eight-week multicentre double-blind clinical studies versus placebo, CSFQ questionnaire (changes in sexual functioning questionnaire)
# Type: in vivo, human
# Settings: 100 mg per day orally for eight weeks
# Protocol: The patients received, orally, a dose of 100 mg per day of saredutant for eight weeks, in the form of gel capsules (Example 2). he effects of saredutant compared with the placebo were evaluated using the CSFQ questionnaire (changes in sexual functioning questionnaire) comprising 14 items according to Clayton A H et al., Psychopharmacol. Bull., 1997, 33, 731-745. It is known that antidepressants have a deleterious effect on the sexual activity of patients (Montejo-Gonzales A L et al.: J. Sex Marital Ther., 1997, 23(3), 176-194). […] The table below indicates, for each group treated, the mean variation relative to the base value before treatment of the total CSFQ score and its variability between parentheses obtained over the analysis of all the studies. An increase in the total CSFQ score corresponds to an improvement in sexual function.
smiles,measurement,setting,value
"CC(=O)NC1(c2ccccc2)CCN(CC[C@H](CN(C)C(=O)c2ccccc2)c2ccc(Cl)c(Cl)c2)CC1 [Saredutant, (S)-(−)-N-[4-(4-acetamido-4-phenylpiperidin-1-yl)-2-(3,4-dichlorophenyl)butyl]-N-methylbenzamide]",effect on the dysfunctions reduced sexual desire and sexual arousal disorders,versus placebo,beneficial effect
same,"improvement in the total CSFQ score between the last visit (56th day) and the first visit, in comparison with the placebo group",p<0.05,significant improvement
same,"Total CSFQ score, mean variation relative to the base value before treatment (variability between parentheses)","all patients, n = 553, analysis of all the studies, increase = improvement in sexual function, *p < 0.05 versus placebo (ANCOVA)",2.23 (0.64)*

# — patent publication US20100173879A1, “USE OF A COMPOUND ANTAGONIST TO THE NK2 RECEPTORS OF NEUROKININ A FOR THE PREPARATION OF DRUGS USEFUL FOR PREVENTING AND TREATING OF SEXUAL DYSFUNCTION” (SANOFI-AVENTIS, priority 2007, published 2010)
